We go through five molecules from patent publication US20100303754A1, “PROCESS FOR PREPARATION OF CYCLODEXTRIN OLIGOMERS OR POLYMERS, PRODUCTS OBTAINED AND USES” (BIOCYDEX, priority 2006, published 2010).

≈ marks a conversion by molar mass, not a printed value.

The data set is described as follows: Solubilization tests of active ingredients by cyclodextrin dimers/trimer (soluble fraction analysed by CLHP). In kind it is physicochemical. Particulars: thermodynamic from solid; Water alone, no cyclodextrin oligomer; stirred 24 hours; read-out: Amount of active ingredient solubilized in water. The protocol: Each solution is stirred for 24 hours, and then the soluble fractions are analyzed by CLHP after ultracentrifuging and filtration.
As to `CCC(=O)O[C@]1(C(=O)SCF)[C@H](C)C[C@H]2[C@@H]3C[C@H](F)C4=CC(=O)C=C[C@]4(C)[C@@]3(F)[C@@H](O)C[C@@]21C` [Fluticasone Propionate], the solubility at 24 h stood at 0.1 µg/mL (≈ 0.2 µM).

Turning to `CC[C@H]1OC(=O)[C@H](C)[C@@H](O[C@H]2C[C@@](C)(OC)[C@@H](O)[C@H](C)O2)[C@H](C)[C@@H](O[C@@H]2O[C@H](C)C[C@H](N(C)C)[C@H]2O)[C@](C)(O)C[C@@H](C)/C(=N\OCOCCOC)[C@H](C)[C@@H](O)[C@]1(C)O` [Roxithromycin], the solubility at 24 h amounted to 464 µg/mL (≈ 555 µM).

In the case of `CC(=O)O[C@H]1C(=O)[C@@]2(C)[C@H]([C@H](OC(=O)c3ccccc3)[C@]3(O)C[C@H](OC(=O)[C@H](O)[C@@H](NC(=O)c4ccccc4)c4ccccc4)C(C)=C1C3(C)C)[C@]1(OC(C)=O)CO[C@@H]1C[C@@H]2O` [Taxol], the solubility at 24 h came to 0.7 µg/mL (≈ 0.82 µM).

As for `CC(=O)O[C@@]12CO[C@@H]1C[C@H](O)[C@@]1(C)C(=O)[C@H](O)C3=C(C)[C@@H](OC(=O)[C@H](O)[C@@H](NC(=O)OC(C)(C)C)c4ccccc4)C[C@@](O)([C@@H](OC(=O)c4ccccc4)[C@H]21)C3(C)C` [Taxotere], the solubility at 24 h came out at 4 µg/mL (≈ 4.95 µM).

On to `C[C@@H](c1ncncc1F)[C@](O)(Cn1cncn1)c1ccc(F)cc1F` [Voriconazole], for which the solubility at 24 h came out at 685 µg/mL (≈ 1960 µM).
